Legend:
Experiment in all cases: relative viability (nuclei count vs DMSO), 5 days (fraction); higher = more cells survive
Selisistat + Navitoclax = compound: C1CC(C2=C(C1)C3=C(N2)C=CC(=C3)Cl)C(=O)N [Selisistat] + CC1(C)CCC(c2ccc(Cl)cc2)=C(CN2CCN(c3ccc(C(=O)NS(=O)(=O)c4ccc(N[C@H](CCN5CCOCC5)CSc5ccccc5)c(S(=O)(=O)C(F)(F)F)c4)cc3)CC2)C1 [Navitoclax] (partner 0.5 µM)
In short: (§1)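 A single step with final 0.05% Triton X-100, 1% formaldehyde and 1 ug/ml Hoechst fixed the cells and stained nuclei 5 days after treatment. Lung cancer cell lines in 1536-well plates had been treated by pin tool the day after seeding with one drug alone or a fixed anchor-drug dose plus five library-drug doses (not always all listed) in √10 steps, and nuclei were counted on 4× images. Relative viability is the ratio of nuclei in treated wells to nuclei in vehicle wells, taken as the median of duplicate plates.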

Selisistat + Foretinib = compound: C1CC(C2=C(C1)C3=C(N2)C=CC(=C3)Cl)C(=O)N [Selisistat] + COc1cc2c(Oc3ccc(NC(=O)C4(C(=O)Nc5ccc(F)cc5)CC4)cc3F)ccnc2cc1OCCCN1CCOCC1 [Foretinib] (partner 0.25 µM)
In short: as §1

Serdemetan = compound: c1ccc2c(CCNc3ccc(Nc4ccncc4)cc3)c[nH]c2c1 [Serdemetan]
In short: (§2)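 Lung cancer cell lines in 1536-well plates were kept overnight at 37 °C, then pinned with five library-drug doses (not always all listed) spaced by √10 on vehicle-anchored plates. After 5 days without medium change, cells were fixed, permeabilised and Hoechst-stained in one step, imaged at 4×, and nuclei were counted with MetaXpress. Viability is treated-well nuclei divided by vehicle-well nuclei, taken as the median over plates. Plates passed only with control CV below 25% and at least one doubling.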

Selisistat = compound: C1CC(C2=C(C1)C3=C(N2)C=CC(=C3)Cl)C(=O)N [Selisistat]
In short: as §2

Cell Line	relative viability (Selisistat + Navitoclax; first compound 0.4 µM)	relative viability (Selisistat + Navitoclax; first compound 1.265 µM)	relative viability (Selisistat + Navitoclax; first compound 4 µM)	relative viability (Selisistat + Navitoclax; first compound 12.65 µM)	relative viability (Selisistat + Navitoclax; first compound 40 µM)	relative viability (Selisistat + Foretinib; first compound 0.4 µM)	relative viability (Selisistat + Foretinib; first compound 1.265 µM)	relative viability (Selisistat + Foretinib; first compound 4 µM)	relative viability (Selisistat + Foretinib; first compound 12.65 µM)	relative viability (Selisistat + Foretinib; first compound 40 µM)	relative viability (Serdemetan; 0.04 µM)	relative viability (Serdemetan; 0.1265 µM)	relative viability (Serdemetan; 0.4 µM)	relative viability (Serdemetan; 1.265 µM)	relative viability (Serdemetan; 4 µM)	relative viability (Selisistat; 0.4 µM)	relative viability (Selisistat; 1.265 µM)	relative viability (Selisistat; 4 µM)	relative viability (Selisistat; 12.65 µM)	relative viability (Selisistat; 40 µM)
NCI-H3122	1.01	1.02	0.935	1.04	0.961	0.996	0.942	0.881	0.97	1.03	0.995	0.984	0.948	0.758	1.02	1.03	1.07	0.782	1.03	1.02
NCI-H460	1.2	1.16	–	1.08	1.3	1.01	0.969	0.967	1.01	1.05	0.936	0.962	0.926	0.77	0.316	0.986	0.961	0.933	0.968	1.03
NCI-H1793	0.446	0.326	–	0.472	0.545	0.386	0.681	–	0.724	0.528	1.03	0.873	0.562	0.471	0.572	0.968	0.846	–	0.956	0.942
NCI-H1734	0.961	0.764	0.822	0.858	0.873	0.956	0.822	0.868	0.889	0.815	0.854	0.455	0.821	0.171	0.263	1.02	0.942	0.921	1.08	1.03
LXF-289	0.95	0.966	0.895	0.901	0.92	1.03	1.02	0.868	0.947	0.997	1.02	0.996	0.933	0.84	0.885	1.05	1.03	0.867	0.949	1.07
H3255	0.512	0.643	0.293	0.438	0.511	0.863	0.9	0.837	0.84	0.767	0.968	0.944	0.987	0.787	0.896	0.984	0.943	0.978	0.948	1.03
201T	1.21	1.17	1.16	1.25	1.25	1.06	1.03	0.997	0.986	1.11	0.983	0.987	0.937	0.919	0.919	1.02	0.996	0.875	1.01	0.996
NCI-H2126	0.888	0.837	0.829	0.899	0.913	1.27	1.16	1.17	1.32	1.16	1.02	1.05	0.96	0.948	1.02	1.08	1.05	0.833	0.999	1.02
HOP-62	1.07	0.905	1.02	0.934	1.16	1.09	1.19	1.17	0.97	1.12	1.03	0.999	1.01	0.873	0.907	0.997	0.987	0.861	0.928	1.07
CAL-12T	1.19	1.04	1.16	1.22	1.14	1.12	1	1	1.03	1.03	0.967	1.05	1.01	0.932	0.927	0.964	0.987	0.747	0.881	1
NCI-H520	1.06	0.959	1.18	1.13	1.03	0.691	0.699	0.715	0.801	0.746	0.929	0.977	0.951	0.633	0.856	0.978	0.939	0.995	0.937	0.877
NCI-H1755	1.08	1.08	1	0.99	1.06	0.985	1.04	0.948	0.923	0.977	1	0.975	0.959	0.775	0.763	1.08	1.1	0.977	1.01	1.08
NCI-H2023	1.03	0.986	0.989	0.948	0.92	0.879	0.81	0.966	0.873	0.904	0.884	1.09	0.932	0.424	0.345	0.952	0.966	0.828	0.876	0.934
NCI-H2009	1.18	1.15	1.19	1.14	1.1	1.33	1.17	–	1.22	1.17	0.97	0.967	1	0.776	0.885	1.01	1.03	0.772	0.933	0.975
